Reference: patent publication US10233188B2, “CDK2/4/6 inhibitors” (priority 2016, dated 2019)

Assays:
[1] = tested on: HCC1806 tumor xenograft; experiment: HCC1806 mouse tumor xenograft model; format: in vivo, NU/NU female mice; conditions: 30 mpk PO BID, 50 mpk PO BID and 75 mpk PO BID, 14 days
Description: Source: HCC1806 (# CRL 2335, ATCC, Manassas, Va.)
The HCC1806 tumor cell line was cultured in RPMI1640 media supplemented with 10% Fetal Bovine Serum (FBS). To establish a HCC1806 xenograft model, 5×10^6 cells per mouse were implanted subcutaneously into right hind flank NU/NU female mice. Cells were suspended in 50% Cultrex Basement Membrane Extract and 50% RPMI 1640 media serum free media prior to implantation.
Animals were randomized 7 days after cells implantation with each group consisting of 13 mice. Treatment began when tumors reached 100 mm^3 to 170 mm^3 in size on Day 7. Test compounds were prepared in 0.1% Tween, 0.5% Methyl cellulose in water and dosed PO at 30, 50, and 75 mg/kg as a suspension BID for 14 days. Mice receiving no drugs were given vehicle BID for 14 days. Tumor volumes were measured twice a week with an electric caliper, with tumor volumes calculated using Length×Width×Width/2 formula. Animal weights were recorded twice weekly.

[2] = target: CDK4/Cyclin D3 (Homo sapiens (Human), UniProt P11802); experiment: biochemical
[3] = target: CDK6/Cyclin D1 (Homo sapiens (Human), UniProt Q00534); experiment: biochemical; conditions: CDK6_Ki (nM), non-phosphorylated CDK6/Cyclin D1, 2 mM ATP, Morrison fit
Sequence of CDK6/Cyclin D1 (Q00534 whole entry): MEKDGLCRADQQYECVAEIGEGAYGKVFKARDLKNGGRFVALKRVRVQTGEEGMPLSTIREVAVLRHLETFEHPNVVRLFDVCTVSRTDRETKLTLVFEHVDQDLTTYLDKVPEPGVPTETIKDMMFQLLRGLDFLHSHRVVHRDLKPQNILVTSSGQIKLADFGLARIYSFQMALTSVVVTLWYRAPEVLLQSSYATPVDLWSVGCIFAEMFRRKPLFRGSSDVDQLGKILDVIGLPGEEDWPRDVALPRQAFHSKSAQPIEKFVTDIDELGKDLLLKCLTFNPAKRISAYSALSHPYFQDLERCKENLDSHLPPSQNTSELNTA
Sequence of CDK6/Cyclin D1 (P24385 whole entry partner): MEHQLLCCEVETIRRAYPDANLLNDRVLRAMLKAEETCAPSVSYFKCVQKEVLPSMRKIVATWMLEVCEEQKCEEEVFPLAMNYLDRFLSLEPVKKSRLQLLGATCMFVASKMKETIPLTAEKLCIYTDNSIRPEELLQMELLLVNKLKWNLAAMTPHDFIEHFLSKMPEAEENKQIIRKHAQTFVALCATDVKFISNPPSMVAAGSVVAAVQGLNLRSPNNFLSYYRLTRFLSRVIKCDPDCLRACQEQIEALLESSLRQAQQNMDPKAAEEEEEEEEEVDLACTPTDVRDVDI

[4] = target: CDK2/Cyclin E1 (Homo sapiens (Human), UniProt P24941); experiment: biochemical; conditions: CDK2_Ki (nM), phosphorylated CDK2/Cyclin E1, 150 μM ATP, Morrison tight-binding fit
Description: The assay was initiated with the addition of ATP, following a fifteen minutes pre-incubation of enzyme and inhibitor at room temperature in the reaction mixture. The reaction was stopped after 45 minutes at room temperature by the addition of 50 μL of 80 mM EDTA, pH 7.5.

[5] = tested on: Ovcar3 tumor xenograft; experiment: Ovcar3 mouse tumor xenograft model; format: in vivo, NSG mice; conditions: 10 mpk PO QD, 50 mpk PO QD and 50 mpk PO BID, 14 days
Description: Ovcar3 tumor cell line, purchased from ATCC (ATCC HTB-161™) was cultured in RPMI1640 (1×) media (Gibco™ cat#11875-093) with 10% FBS (Gibco™ cat #26140-079). To establish a Ovcar3 xenograft model, 5×10^6 cells per mouse was implanted subcutaneously into right hind flank NSG mice (#5557-NOD.cg-Prkdc Jackson Lab). Cells were suspended in 50% matrigel (Cultrex Basement Membrane Extract (BME), Trevigen's Basement Membrane Matrix) and 50% RPMI1640 (1×) media (Gibco™ cat#11875-093) serum free media prior to implantation.
Animals were randomized 39 days after cells implantation with each group consisted of 4 mice. Treatment began when tumors reached 100 mm^3-190 mm^3 in size. Test compounds were prepared in 40% Captisol and dosed PO at 10 and 50 mg/kg QD or at 50 mg/kg BID as a suspension for 14 days. Animals were taken down at designated time. Mice receiving no drugs were given vehicle QD or BID for 14 days. Tumor volumes were measured once prior to randomization with an electric caliper, with tumor volumes were calculated using Length×Width×Width/2 formulation. Tumor volumes were measured twice a week with an electric caliper, with tumor volumes calculated using Length×Width×Width/2 formula. Animal weights were recorded twice weekly.

Sequence of CDK4/Cyclin D3 (P11802 whole entry): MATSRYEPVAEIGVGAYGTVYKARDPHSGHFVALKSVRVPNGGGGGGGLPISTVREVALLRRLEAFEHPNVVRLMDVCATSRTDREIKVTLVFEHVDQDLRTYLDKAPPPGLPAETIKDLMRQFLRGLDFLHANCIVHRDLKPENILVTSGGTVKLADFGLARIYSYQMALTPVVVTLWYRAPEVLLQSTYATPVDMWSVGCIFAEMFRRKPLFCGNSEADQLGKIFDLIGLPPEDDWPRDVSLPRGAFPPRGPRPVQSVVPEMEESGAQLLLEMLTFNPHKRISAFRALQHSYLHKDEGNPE
Sequence of CDK4/Cyclin D3 (P30281 whole entry partner): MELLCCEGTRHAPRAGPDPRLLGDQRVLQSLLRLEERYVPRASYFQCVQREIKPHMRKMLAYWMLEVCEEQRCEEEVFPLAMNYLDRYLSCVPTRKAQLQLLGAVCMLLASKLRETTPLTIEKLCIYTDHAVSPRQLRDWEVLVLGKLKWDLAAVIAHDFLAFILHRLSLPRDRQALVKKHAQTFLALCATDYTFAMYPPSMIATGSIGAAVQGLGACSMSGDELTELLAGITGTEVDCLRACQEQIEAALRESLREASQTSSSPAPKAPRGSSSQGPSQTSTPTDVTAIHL

| SMILES | Ki [2] [nM] | Ki [3] [nM] | Ki [4] [nM] | inhibition of tumor growth (mm^3) [1] | inhibition of tumor growth (mm^3) [5] |
| --- | --- | --- | --- | --- | --- |
| C[C@@]1(O)CCC[C@H]1n1c(=O)c(C(F)F)cc2cnc(NC3CCN(S(C)(=O)=O)CC3)nc21 [Example 10, 6-(difluoromethyl)-8-[(1R,2R)-2-hydroxy-2-methylcyclopentyl]-2-{[1-(methylsulfonyl)piperidin-4-yl]amino}pyrido[2,3-d]pyrimidin-7(8H)-one] | – | – | – | tumor growth inhibition | – |
| C[C@@]1(O)CCC[C@H]1n1c(=O)ccc2cnc(NC3CCN(S(C)(=O)=O)CC3)nc21 [Example 2, 8-[(1R,2R)-2-hydroxy-2-methylcyclopentyl]-2-{[1-(methylsulfonyl)piperidin-4-yl]amino}pyrido[2,3-d]pyrimidin-7(8H)-one] | – | – | – | dose dependent inhibition of tumor growth | dose dependent inhibition of tumor growth |
| C[C@@]1(O)CCC[C@H]1n1c(=O)c(F)cc2cnc(NC3CCN(S(C)(=O)=O)CC3)nc21 (single isomer, unassigned) [Example 6, (−)-6-fluoro-8-[(1R*,2R*)-2-hydroxy-2-methylcyclopentyl]-2-{[1-(methylsulfonyl)piperidin-4-yl]amino}pyrido[2,3-d]pyrimidin-7(8H)-one] | 3.94 | 2.38 | 0.48 | – | – |
| C[C@]1(O)CCC[C@@H]1n1c(=O)ccc2cnc(NC3CCN(S(=O)(=O)NC4CCOCC4)CC3)nc21 (single isomer, unassigned) [Example 69, (+)-4-({8-[(1R*,2R*)-2-hydroxy-2-methylcyclopentyl]-7-oxo-7,8-dihydropyrido[2,3-d]pyrimidin-2-yl}amino)-N-(tetrahydro-2H-pyran-4-yl)piperidine-1-sulfonamide] | – | 22.2 | 4.48 | – | – |
| C[C@@H]1CCC[C@@H]1n1c(=O)c(CO)cc2cnc(NC3CCN(S(C)(=O)=O)CC3)nc21 [Example 51, 6-(hydroxymethyl)-8-[(1S,2R)-2-methylcyclopentyl]-2-{[1-(methylsulfonyl)piperidin-4-yl]amino}pyrido[2,3-d]pyrimidin-7(8H)-one] | – | 0.13 | 1.74 | – | – |
| CS(=O)(=O)N1CCC(Nc2ncc3ccc(=O)n([C@@H]4CCC[C@@H](O)C4)c3n2)CC1 [Example 3, 8-[(1R,3R)-3-hydroxycyclohexyl]-2-{[1-(methylsulfonyl)piperidin-4-yl]amino}pyrido[2,3-d]pyrimidin-7(8H)-one] | 3.43 | 1.17 | 0.26 | – | – |

Continued, in another order:

| Ki [2] [nM] | Ki [3] [nM] | Ki [4] [nM] | SMILES | inhibition of tumor growth (mm^3) [1] | inhibition of tumor growth (mm^3) [5] |
| --- | --- | --- | --- | --- | --- |
| 0.92 | 0.23 | 0.11 | C[C@@]1(O)CCC[C@H]1n1c(=O)c(CCO)cc2cnc(NC3CCN(S(C)(=O)=O)CC3)nc21 (single isomer, unassigned) [Example 122, (−)-6-(2-hydroxyethyl)-8-[(1R*,2R*)-2-hydroxy-2-methylcyclopentyl]-2-{[1-(methylsulfonyl)piperidin-4-yl]amino}pyrido[2,3-d]pyrimidin-7(8H)-one] | – | – |
| 0.34 | 0.18 | 0.16 | C[C@@]1(O)CCC[C@H]1n1c(=O)c(CC#N)cc2cnc(NC3CCN(S(C)(=O)=O)CC3)nc21 (single isomer, unassigned) [Example 120, (−)-(8-[(1R*,2R*)-2-hydroxy-2-methylcyclopentyl]-2-{[1-(methylsulfonyl)piperidin-4-yl]amino}-7-oxo-7,8-dihydropyrido[2,3-d]pyrimidin-6-yl)acetonitrile] | – | – |
| – | 0.43 | 0.17 | CNS(=O)(=O)N1CCC(Nc2ncc3cc(C(F)F)c(=O)n([C@@H]4CCC[C@@]4(C)O)c3n2)CC1 (single isomer, unassigned) [Example 130, (−)-4-({6-(difluoromethyl)-8-[(1R*,2R*)-2-hydroxy-2-methylcyclopentyl]-7-oxo-7,8-dihydropyrido[2,3-d]pyrimidin-2-yl}amino)-N-methylpiperidine-1-sulfonamide] | – | – |
| – | 22.7 | 3.35 | Cc1cc2cnc(NC3CCN(S(=O)(=O)NCC(C)(F)F)CC3)nc2n([C@H]2CCC[C@]2(C)O)c1=O (single isomer, unassigned) [Example 105, (+)-N-(2,2-difluoropropyl)-4-({8-[(1R*,2R*)-2-hydroxy-2-methylcyclopentyl]-6-methyl-7-oxo-7,8-dihydropyrido[2,3-d]pyrimidin-2-yl}amino)piperidine-1-sulfonamide] | – | – |
